Where “and” joins values, the source holds several entries; their conditions need not be identical. Equal entries are not always repeated. Entries after “also recorded” stand apart in the source; their conditions may differ.
Tests used:
traumatic hemophthalmia = test: Experimental traumatic hemophthalmia: preclinical and ultrasonic examination; type: in vivo, chinchilla rabbits; settings: for Capability of ophthalmoscopy and eyeground: 3-point scale, 0 impossible, 3 details clearly visible; for Density of hemophthalmia: 100 SUD = ultrasonic sclera density; for Area of hemophthalmia / Volume of a hemophthalmia: parabulbar 0.5 ml of 1% solution daily
Experimental: Studies were carried out in 12 chinchilla rabbits having body weight 2.0-2.5 kg. A traumatic hemophthalmia was modeled by introduction of 0.5 to 0.7 ml of autoblood into a vitreous body through a puncture in a sclera on distance of 5 mm from a limbus, under a local anaesthesia. The basic group made with 6 rabbits (12 eyes), daily received a formulation prepared in accordance with the present invention parabulbarly (0.5 ml of 1% solution). A control group presented by 6 animals (12 eyes), daily received parabulbar emoxipin (2-ethyl-6-methyl-3-hydroxypiridin) in the same dosage. Treatment was carried out within 14 days after a trauma.
Besides the traditional ophthalmologic examination such as biomicroscopy, direct and indirect ophthalmoscopy, all the animals passed through ultrasonic scanning of an eye by means of the device “Voluson 730” (“Kretz”). The studies were carried out on the 1, 3, 7, 10 and 14th day of the experiment. For the estimation of efficiency of the treatment following tests were used: density, area, volume of a hemophthalmia and opportunity (possibility) of ophthalmoscopy of an eye ground. Density of a hemophthalmia was estimated in standard (conventional) units of density (SUD), 100 SUD were accepted for the maximal value, corresponding to the ultrasonic sclera density. Depending on the degree of acoustic density of a hemophthalmia, a high (100-50 SUD), medium (50-25 SUD) and low (less than 25 SUD) densities were distinguished. To determine the hemophthalmia the area measurement in sm^2 was used. The volume of the intraocular hemorrhage was studied with the help of 3D modelling in the B-regimen of a grey scale and measurement in sm^3.
At the ultrasonic examination of the intact rabbit's eyes, the average volume of vitreous body (1.0±0.9 sm^3) and the average area of a vitreous body (1.04±0.8 sm^2) were fixed. Proceeding from the obtained data, the total hemophthalmia (from 100 up to 50% of the vitreous body volume) was equated to the volume of 0.5-1.0 sm^3 and of 0.5-1.0 sm^2, a wide-spread hemophthalmia (50-25% of volume of a vitreous) corresponded to the area of 0.5-0.25 sm^3, both 0.5-0.25 sm^2, and the partial hemophthalmia occupied up to 0.25 sm^3 and 0.25 sm^2 (up to 25% of the vitreous volume).
Capability of the eyeground ophthalmoscopy was estimated by a 3-mark(point) scale depending on the image sharpness (0—ophthalmoscopy is impossible (not capable), 3—details of an eyeground are clearly visible).

[1] = test system: lipofuscin induced cardiolipin photoperoxidation; test: Inhibition of lipofuscin induced cardiolipin liposome photoperoxidation; type: biochemical, human; settings: for Concentration of TBK-active products / Inhibition: 2 mM compound; for Inhibiting / protective effect regarding phototoxic action of lipofuscin granules: result in words
Experimental: Liposomes are prepared from methanolic solution of cardiolipin (initial concentration: 5 mg/ml) by evaporation of methanol and solubilization of cardiolipin in a phosphate buffer. A mixture comprising a suspension of liposomes and lipofuscin granules, isolated from tissue of a retinal pigmentary epithelium of a human eye, is subjected to irradiation with intensive blue light under constant stirring. Concentration of lipid peroxidation products (TBK-active products) is determined after 20, 40, 60 and 90 minutes. The experimental sample contained 2 mM of a solution of compound Ic, or 2 mM of a solution of mexydole.

[2] = Antiradical activity by chemiluminescence (rate constant k7); type: physicochemical
Experimental: The efficiency of 3-hydroxypyridine derivatives as inhibitors of free radical reactions was determined by hemiluminescent method by means of measurement of speed constants of their reaction with ethyl-benzene k7 peroxide radicals.
The measurements of intensity of chemiluminescence (HL) have been carried out with an apparatus CNK-7, designed and made by IHF RAN USSR. A photomultiplier FAU-38 is used as an optical receiver. The fixed concentration of radicals during oxidation of […] (cumole) is controlled by an initiator being azo-bis-isobutyronitrile.
In order to increase HL emission the activator chelate Eu (europium tristenoyl triphtoroacetonate with 1,10-phenatroline) has been used that has allowed to conduct measurements at low speed values of radical initiation (W1=10^−8-10^−9 mol/I.s.) and, therefore, at small amounts of added sample. A weighed amount of samples studied was diluted in an suitable solvent (chlorobenzene or acetonitrile) and a small amount of the prepared solution (0.1-0.25 ml) was added to the reaction mixture (5-6 ml), arranged in a temperature-controlled reaction vessel of the HL-device. The change of emission intensity was recorded.

For “2,4,6-trimethyl-3-oxypyridine succinate [Compound Ic]”, the “Capability of ophthalmoscopy and eyeground” value (from here on “Capability”) (traumatic hemophthalmia; 1st day) was 1.5 points, the Density of hemophthalmia (traumatic hemophthalmia; 1st day) was 84 ± 2.4 SUD and the Area of hemophthalmia (traumatic hemophthalmia; 1st day) was 0.49 ± 0.7 sm^2. For the same substance, the “Volume of a hemophthalmia” value (traumatic hemophthalmia; 1st day) was 0.53 ± 0.4 sm^3, the “Capability” value (traumatic hemophthalmia; 3rd day) was 0-0.5 points and the Density of hemophthalmia (traumatic hemophthalmia; 3rd day) was 72 ± 3.1 SUD. The Area of hemophthalmia (traumatic hemophthalmia; 3rd day) was 0.74 ± 0.9 sm^2, the “Volume of a hemophthalmia” value (traumatic hemophthalmia; 3rd day) was 0.78 ± 0.2 sm^3 and the “Capability” value (traumatic hemophthalmia; 7th day) was 1.5 points. The Density of hemophthalmia (traumatic hemophthalmia; 7th day) was 49±1.4 SUD, the Area of hemophthalmia (traumatic hemophthalmia; 7th day) was 0.47 ± 0.4 sm^2 and the “Volume of a hemophthalmia” value (traumatic hemophthalmia; 7th day) was 0.51 ± 0.6 sm^3. For the same substance, the “Capability” value (traumatic hemophthalmia; 10th day) was 2.2 points, the Density of hemophthalmia (traumatic hemophthalmia; 10th day) was 23±1.1 SUD and the Hemophthalmia completely resolved (traumatic hemophthalmia; 10th day, group of 6 rabbits) was “two animals”. For the same substance, the Area of hemophthalmia (traumatic hemophthalmia; 10th day) was 0.24±0.1 sm^2 and 0.2 ± 0.1 sm^2, the “Volume of a hemophthalmia” value (traumatic hemophthalmia; 10th day) was 0.2±0.1 sm^3 and 0.24 ± 0.1 sm^3 and the Hemophthalmia completely resolved (traumatic hemophthalmia; 14th day) was 50 % of animals. For the same substance, the “Capability” value (traumatic hemophthalmia; 14th day) was 2.8 points, the Density of hemophthalmia (traumatic hemophthalmia; 14th day) was 13±0.6 SUD and the Area of hemophthalmia (traumatic hemophthalmia; 14th day) was 0.11 ± 0.7 sm^2. For the same substance, the “Volume of a hemophthalmia” value (traumatic hemophthalmia; 14th day) was 0.15 ± 0.2 sm^3, the “Efficiency on resorption of traumatic hemophthalmia” value (traumatic hemophthalmia; conclusion in words) was “positive effect on the resorptive processes in a vitreous body; also recorded: much higher in comparison with emoxipin” and the “Concentration of TBK-active products” value ([1]; radiation time 0 min) was 1.3 nmol/mg lipid. The Inhibition ([1]; radiation time 0 min) was 0%, the “Concentration of TBK-active products” value ([1]; radiation time 20 min) was 2.42 nmol/mg lipid and the Inhibition ([1]; radiation time 20 min) was 20%. The “Concentration of TBK-active products” value ([1]; radiation time 40 min) was 2.53 nmol/mg lipid, the Inhibition ([1]; radiation time 40 min) was 28% and the “Concentration of TBK-active products” value ([1]; radiation time 60 min) was 2.85 nmol/mg lipid. For the same substance, the Inhibition ([1]; radiation time 60 min) was 40%, the “Concentration of TBK-active products” value ([1]; radiation time 90 min) was 3.28 nmol/mg lipid and the Inhibition ([1]; radiation time 90 min) was 40%. The “Inhibiting / protective effect regarding phototoxic action of lipofuscin granules” value [1] was “active inhibitor”, the “Inhibiting / protective effect regarding phototoxic action of lipofuscin granules” value ([1]; listed as I) was “protective effect” and the “Antiradical activity in comparison with mexydole” value ([2]; result in words) was “two times higher antiradical activity”. The “k7 × 10^−4” value ([2]; speed constant of reaction with ethyl-benzene peroxide radicals) was 9.5 l/mol × sec.
